Measured values as given in US12090204B2, “Photodynamic therapy compositions and methods of use thereof” (Pinnacle Biologics, Inc., priority 2020, dated 2024).
Several values for one entry are separate records, joined by “and”; a condition that tells them apart may be missing. Equal values may be shown once.

Key:
P. acnes (+) = experiment: porfimer sodium aPDT, 48 hour biofilm culture; assay type: cell-based, Proprionibacterium acnes (Cutibacterium acnes); conditions: 630 nm, kill at 100 J/cm2 (light dose 75-100 J/cm2), porfimer sodium 250 μg/mL
Experimental: (§1) Bacteria were routinely cultured using tryptic soy broth or agar at 37° C. in a 5% CO2 incubator. Bacteria were isolated and suspended with 0.9% NaCl to an Optical Density (OD) of 0.1 taken at 630 nm, to generate the inoculum used for either planktonic or biofilm assays.
The colony forming units (CFU) per mL of the starting inoculum for every experiment was determined by dilution plating. Control samples were exposed to laser at 630 nm in the absence of porfimer sodium, porfimer sodium in the absence of laser exposure, or in saline alone in the absence of porfimer sodium and 630 nm laser light. All experimental samples were dilution plated to enumerate viable CFU's. Three independent replicates were performed for each reaction condition per strain per assay. […]
(§2) Bacteria were exposed to 630 nm laser light via a fiber optic with a lens affixed to the distal end to provide a uniform diverging light field. […] Power output of the laser was measured using a UDT/Gamma Scientific 371 optical power meter and an integrating sphere. […]
(§3) Biofilms were formed on glass coupons in culture dishes containing a bacterial inoculum for 48 hours under conditions specific to the strain. […] Power output of the laser was measured using a UDT/Gamma Scientific 371 optical power meter and an integrating sphere. […]

Moraxella catarrhalis = experiment: abraded skin wounds, culture swabs (Example 3); assay type: in vivo, Yorkshire pigs
From the text: (§4) On Day −2 of the study, pigs were anesthetized and the skin aseptically prepared. Superficial wounds were created using the tape strip method until punctate bleeding was observed. Also on Day −2, eight wounds per pig were inoculated with one of three bacterial cultures (Haemophilus influenza, Moraxella catarrhalis, or Staphylococcus aureus) at a concentration of 10^7-10^8 CFUs per mL. There were two control sites on each side. […] The wounds were covered, analgesia in the form of buprenorphine (IM, 0.03 mg/kg) was provided, and the animals were recovered from anesthesia.
(§5) On Day 0, culture swabs were collected from each wound prior to dosing. Six wounds per pig were treated with the test article and the laser light treatment. Culture swabs were collected from the test wounds 1 hour following laser light treatment and the animals were recovered from anesthesia. On Day 1, culture swabs were collected from the treated wounds and two wounds per pig were treated a second time with the test article and the laser light treatment. Culture swabs were collected from these test wounds 1 hour following laser light treatment and the animals were recovered from anesthesia. On Day 2, culture swabs were collected from each wound just prior to euthanasia.
(§6) Porfimer sodium administration: to prepare the test article, 75 mg of porfimer sodium was reconstituted with the currently FDA approved method of 31.8 mL of 0.9% sodium chloride, resulting in a stock solution of 2.5 mg/mL. Due to concerns about stability of the solution, the solution was used immediately. A 10 ml solution at a concentration of 0.3 mg/ml (300 mcg/ml), in 0.9% Sodium Chloride Injection (USP) was prepared. 300 μg of porfimer sodium was applied as a saline solution to infected wounds (except controls) and incubated for 30 minutes prior to activation. The sites were exposed to a 630 nm laser light for up to 20 minutes. The light source, a 630PDT laser. Each wound was exposed to 200 J/cm^2.

Staphylococcus aureus = experiment: abraded skin wounds, culture swabs (Example 3); assay type: in vivo, Yorkshire pigs; conditions: for Log CFU/site, Sa: sites 2, 7: hydrogel formulation, treated twice (LPT)
From the text: as §4, §5, §6

Haemophilus influenza = experiment: abraded skin wounds, culture swabs (Example 3); assay type: in vivo, Yorkshire pigs
From the text: as §4, §5, §6

S. enterica (−) = experiment: porfimer sodium aPDT, planktonic culture; assay type: cell-based, Salmonella enterica; conditions: 630 nm, 200 J/cm2, porfimer sodium 125 μg/mL
Experimental: as §1
(§7) Experiments using planktonic cultures were carried out using M. catarrhalis, as a standard for further comparisons and to determine the effective drug concentration, porfimer sodium incubation time and light dose parameters which would provide an effective cell kill at the level of 5-7 logs. Once determined the experiments were repeated for all other bacterial strains examined.
(§8) The colony forming units (CFU) per mL of the starting inoculum for every experiment was determined by dilution plating. […]
as §2, §3

S. aureus (+) = experiment: porfimer sodium aPDT, planktonic culture; assay type: cell-based, Staphylococcus aureus; conditions: 630 nm, 200 J/cm2, porfimer sodium 125 μg/mL
Experimental: as §1, §7, §8, §2, §3

[1] = 300 μg porfimer sodium, 30 minutes, 630 nm 200 J/cm^2

Substance: porfimer sodium
- Rate of kill (P. acnes (+)): 7Log
- antimicrobial activity when applied to inoculated wounds (Moraxella catarrhalis; [1]): did not provide antimicrobial activity
- Log CFU/site, Mc (Moraxella catarrhalis; sites 3, 8: porfimer sodium in saline, treated once (LPO), day 2, terminal): 3.1 × 10^6 Log CFU/site and 3.0 × 10^4 Log CFU/site
- antimicrobial activity when applied to inoculated wounds (Staphylococcus aureus; [1]): did not provide antimicrobial activity
- Log CFU/site, Sa (Staphylococcus aureus; day 1, 1 h-post 2nd tx): 2.1 × 10^5 Log CFU/site and 2.2 × 10^4 Log CFU/site
- Log CFU/site, Sa (Staphylococcus aureus; day 2, terminal): 1.2 × 10^5 Log CFU/site and 1.3 × 10^6 Log CFU/site
- antimicrobial activity when applied to inoculated wounds (Haemophilus influenza; [1]): did not provide antimicrobial activity
- Log CFU/site, Hi (Haemophilus influenza; sites 1, 6: hydrogel formulation, treated once (LPO), day 1, 24 h post tx): 3.0 × 10^5 Log CFU/site
- Log CFU/site, Hi (Haemophilus influenza; sites 2, 7: hydrogel formulation, treated twice (LPT), day 0, 1 h-post tx): 1.3 × 10^4 Log CFU/site and 1.2 × 10^2 Log CFU/site
- Log CFU/site, Hi (Haemophilus influenza; sites 2, 7: hydrogel formulation, treated twice (LPT), day 1, pre 2nd tx): 2.0 × 10^4 Log CFU/site and 2.3 × 10^3 Log CFU/site
- Rate of kill (S. enterica (−)): 6Log
- Rate of kill (S. aureus (+)): >7Log
